Read-outs that look alike come from different tables or passages of the source.
Legend:
[1] = system: AML cell lines (HL60/VCR, OCI-AML2, THP-1); assay: Viability of AML cell lines, MTS and Cell Titer Glo (FIGS. 2, 4, Table 2); assay type: cell-based, human; conditions: 24 hours
Protocol: Representative human AML cell lines (FIG. 2A; upper and lower panels) HL60/VCR and (FIG. 2B; upper and lower panels) OCI-AML2 were treated with SACLAC for 24 and 48 hours. Viability was assessed by MTS assay at 24 and 48 hours and apoptosis was assessed by flow cytometry at 48 hours. Upper panels represent % viability and lower panels indicate % apoptosis.
(§1) AML cell lines and normal samples (PBMCs and/or CD34+ cells) were treated for 24 hours with SACLAC (FIG. 4A-7 cell lines) and similar AC inhibitor SABRAC (2-bromo-N-((2S,3R)-1,3-dihydroxyoctadecan-2-yl)acetamide) (FIG. 4B-four cell lines). Viability was assessed by MTS and Cell Titer Glo viability assays. EC50 values (FIG. 4C) were graphed to visualize fold-change between AML and normal cells with treatment of each compound. […] Cells tested for SABRAC were HL60/VCR and OCI-AML2 AML cell lines and two normal PBMC control samples (PBMC1 and PBMC2). The same four cell types were tested for SACLAC, as well as the AML cell line THP-1 and two normal CD34+ cell control samples (CD34+1 and CD34+2).
(§2) Next, we tested the toxicity of SACLAC and a similar published AC inhibitor SABRAC^17 to normal hematopoietic cells to ensure that AML cells are selectively targeted by the compound (FIG. 4A). […] This degree of selectivity was unexpected but extremely important for potential clinical use. […] This remarkable increase in selectivity is a surprising discovery that greatly exceeds the predicted similarity in compound behavior that one may expect with a simple substitution of one halogen for another (Cl for Br).

[2] = system: normal samples (PBMCs and/or CD34+ cells); assay: Viability of normal samples, MTS and Cell Titer Glo (FIG. 4, Table 2); assay type: cell-based; conditions: 24 hours
Protocol: as §1, §2

EC50 ([1]; Homo sapiens, 24 h, mean of AML cell lines, read-out: EC50 AML): 360 nM
SMILES: CCCCCCCCCCCCCCC[C@@H](O)[C@H](CO)NC(=O)CBr [SABRAC, 2-bromo-N-((2S,3R)-1,3-dihydroxyoctadecan-2-yl)acetamide, reference compound]
Fold Change ([1]; EC50 Normal versus EC50 AML): 1.25 | EC50 ([2]; SACLAC: PBMC1, PBMC2, CD34+1, CD34+2, SABRAC: PBMC1, PBMC2, order of samples not given, read-out: EC50, single normal samples (FIG. 4A, 4B)): 600 nM | EC50 ([2]; PBMC, 24 h, mean of normal samples (PBMCs and/or CD34+ cells), read-out: EC50 Normal): 450 nM

— patent US11426371B2, “Compositions and methods for treating cancer” (University of Virginia Patent Foundation, priority 2017, dated 2022)
